Experimental data: the supplement of paper PMC10307832

Key:
Experiment in all cases: relative viability (nuclei count vs DMSO), 5 days (fraction); higher = more cells survive
LU99A = system: LU99A
Procedure, shortened: (§1)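 Relative viability equals treated-well nuclei counts divided by vehicle-well nuclei counts. Counts came from 4× images of lung cancer cell lines grown in 1536-well plates for 5 days after pin-tool dosing on the day after seeding. Dosing used one drug alone or a fixed anchor-drug dose plus five library-drug doses (not always all listed) in √10 steps, and values are medians of duplicate plates.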

NCI-H1650 = system: NCI-H1650
Procedure, shortened: as §1

NCI-H2085 = system: NCI-H2085
Procedure, shortened: as §1

NCI-H596 = system: NCI-H596
Procedure, shortened: as §1

SK-LU-1 = system: SK-LU-1
Procedure, shortened: as §1

PC-3 [JPC-3] = system: PC-3 [JPC-3]
Procedure, shortened: as §1

NCI-H1793 = system: NCI-H1793
Procedure, shortened: as §1

NCI-H2087 = system: NCI-H2087
Procedure, shortened: as §1

NCI-H358 = system: NCI-H358
Procedure, shortened: as §1

NCI-H1651 = system: NCI-H1651
Procedure, shortened: as §1

HCC-366 = system: HCC-366
Procedure, shortened: as §1

NCI-H650 = system: NCI-H650
Procedure, shortened: as §1

NCI-H23 = system: NCI-H23
Procedure, shortened: as §1

COR-L23 = system: COR-L23
Procedure, shortened: as §1

HARA = system: HARA
Procedure, shortened: as §1

H3255 = system: H3255
Procedure, shortened: as §1

NCI-H460 = system: NCI-H460
Procedure, shortened: as §1

201T = system: 201T
Procedure, shortened: as §1

HCC-78 = system: HCC-78
Procedure, shortened: as §1

NCI-H1755 = system: NCI-H1755
Procedure, shortened: as §1

NCI-H3122 = system: NCI-H3122
Procedure, shortened: as §1

NCI-H322M = system: NCI-H322M
Procedure, shortened: as §1

CCNC(=O)c1noc(-c2cc(C(C)C)c(O)cc2O)c1-c1ccc(CN2CCOCC2)cc1 [Luminespib] + CS(=O)(=O)CCNCc1ccc(-c2ccc3ncnc(Nc4ccc(OCc5cccc(F)c5)c(Cl)c4)c3c2)o1 [Lapatinib] (partner 2 µM)
relative viability (LU99A; first compound 0.002 µM): 1.11 | relative viability (LU99A; first compound 0.006325 µM): 0.939 | relative viability (LU99A; first compound 0.02 µM): 0.518 | relative viability (LU99A; first compound 0.06325 µM): 0.127 | relative viability (LU99A; first compound 0.2 µM): 0.11 | relative viability (NCI-H1650; first compound 0.002 µM): 0.761 | relative viability (NCI-H1650; first compound 0.006325 µM): 0.642 | relative viability (NCI-H1650; first compound 0.02 µM): 0.177 | relative viability (NCI-H1650; first compound 0.06325 µM): 0.145 | relative viability (NCI-H1650; first compound 0.2 µM): 0.176 | relative viability (NCI-H2085; first compound 0.002 µM): 0.854 | relative viability (NCI-H2085; first compound 0.006325 µM): 0.793 | relative viability (NCI-H2085; first compound 0.02 µM): 0.482 | relative viability (NCI-H2085; first compound 0.06325 µM): 0.373 | relative viability (NCI-H2085; first compound 0.2 µM): 0.284 | relative viability (NCI-H596; first compound 0.002 µM): 1.18 | relative viability (NCI-H596; first compound 0.006325 µM): 0.99 | relative viability (NCI-H596; first compound 0.06325 µM): 0.933 | relative viability (NCI-H596; first compound 0.2 µM): 0.969 | relative viability (SK-LU-1; first compound 0.002 µM): 0.905 | relative viability (SK-LU-1; first compound 0.006325 µM): 0.469 | relative viability (SK-LU-1; first compound 0.02 µM): 0.424 | relative viability (SK-LU-1; first compound 0.06325 µM): 0.164 | relative viability (SK-LU-1; first compound 0.2 µM): 0.133 | relative viability (PC-3 [JPC-3]; first compound 0.002 µM): 0.486 | relative viability (PC-3 [JPC-3]; first compound 0.006325 µM): 0.471 | relative viability (PC-3 [JPC-3]; first compound 0.02 µM): 0.404 | relative viability (PC-3 [JPC-3]; first compound 0.06325 µM): 0.488 | relative viability (PC-3 [JPC-3]; first compound 0.2 µM): 0.338 | relative viability (NCI-H1793; first compound 0.002 µM): 0.697 | relative viability (NCI-H1793; first compound 0.006325 µM): 0.832 | relative viability (NCI-H1793; first compound 0.02 µM): 0.223 | relative viability (NCI-H1793; first compound 0.06325 µM): 0.167 | relative viability (NCI-H1793; first compound 0.2 µM): 0.177 | relative viability (NCI-H2087; first compound 0.002 µM): 1.11 | relative viability (NCI-H2087; first compound 0.006325 µM): 0.954 | relative viability (NCI-H2087; first compound 0.02 µM): 0.726 | relative viability (NCI-H2087; first compound 0.06325 µM): 0.202 | relative viability (NCI-H2087; first compound 0.2 µM): 0.174 | relative viability (NCI-H358; first compound 0.002 µM): 0.503 | relative viability (NCI-H358; first compound 0.006325 µM): 0.446 | relative viability (NCI-H358; first compound 0.02 µM): 0.354 | relative viability (NCI-H358; first compound 0.06325 µM): 0.132 | relative viability (NCI-H358; first compound 0.2 µM): 0.14 | relative viability (NCI-H1651; first compound 0.002 µM): 0.902 | relative viability (NCI-H1651; first compound 0.006325 µM): 0.803 | relative viability (NCI-H1651; first compound 0.02 µM): 0.561 | relative viability (NCI-H1651; first compound 0.06325 µM): 0.193 | relative viability (NCI-H1651; first compound 0.2 µM): 0.161 | relative viability (HCC-366; first compound 0.002 µM): 1.07 | relative viability (HCC-366; first compound 0.006325 µM): 1.05 | relative viability (HCC-366; first compound 0.02 µM): 0.13 | relative viability (HCC-366; first compound 0.06325 µM): 0.0159 | relative viability (HCC-366; first compound 0.2 µM): 0.0157 | relative viability (NCI-H650; first compound 0.002 µM): 0.888 | relative viability (NCI-H650; first compound 0.006325 µM): 0.838 | relative viability (NCI-H650; first compound 0.02 µM): 0.507 | relative viability (NCI-H650; first compound 0.06325 µM): 0.0944 | relative viability (NCI-H650; first compound 0.2 µM): 0.149 | relative viability (NCI-H23; first compound 0.002 µM): 1.02 | relative viability (NCI-H23; first compound 0.006325 µM): 1.1 | relative viability (NCI-H23; first compound 0.02 µM): 0.587 | relative viability (NCI-H23; first compound 0.06325 µM): 0.139 | relative viability (NCI-H23; first compound 0.2 µM): 0.112 | relative viability (COR-L23; first compound 0.002 µM): 1.22 | relative viability (COR-L23; first compound 0.006325 µM): 0.945 | relative viability (COR-L23; first compound 0.02 µM): 0.924 | relative viability (COR-L23; first compound 0.06325 µM): 0.0749 | relative viability (COR-L23; first compound 0.2 µM): 0.0671 | relative viability (HARA; first compound 0.002 µM): 0.704 | relative viability (HARA; first compound 0.006325 µM): 0.709 | relative viability (HARA; first compound 0.02 µM): 0.465 | relative viability (HARA; first compound 0.06325 µM): 0.335 | relative viability (HARA; first compound 0.2 µM): 0.259 | relative viability (H3255; first compound 0.002 µM): 0.245 | relative viability (H3255; first compound 0.006325 µM): 0.305 | relative viability (H3255; first compound 0.02 µM): 0.234 | relative viability (H3255; first compound 0.06325 µM): 0.233 | relative viability (H3255; first compound 0.2 µM): 0.25 | relative viability (NCI-H460; first compound 0.002 µM): 1.11 | relative viability (NCI-H460; first compound 0.006325 µM): 0.871 | relative viability (NCI-H460; first compound 0.02 µM): 0.0465 | relative viability (NCI-H460; first compound 0.06325 µM): 0.0095 | relative viability (NCI-H460; first compound 0.2 µM): 0.0127 | relative viability (201T; first compound 0.002 µM): 1.03 | relative viability (201T; first compound 0.006325 µM): 0.961 | relative viability (201T; first compound 0.02 µM): 0.878 | relative viability (201T; first compound 0.06325 µM): 1.02 | relative viability (201T; first compound 0.2 µM): 0.986 | relative viability (HCC-78; first compound 0.002 µM): 0.572 | relative viability (HCC-78; first compound 0.06325 µM): 1.32 | relative viability (HCC-78; first compound 0.2 µM): 1.27 | relative viability (NCI-H1755; first compound 0.002 µM): 1.09 | relative viability (NCI-H1755; first compound 0.006325 µM): 0.97 | relative viability (NCI-H1755; first compound 0.02 µM): 1.07 | relative viability (NCI-H1755; first compound 0.06325 µM): 0.502 | relative viability (NCI-H1755; first compound 0.2 µM): 0.176 | relative viability (NCI-H3122; first compound 0.002 µM): 1.09 | relative viability (NCI-H3122; first compound 0.006325 µM): 0.951 | relative viability (NCI-H3122; first compound 0.02 µM): 1.02 | relative viability (NCI-H3122; first compound 0.06325 µM): 0.24 | relative viability (NCI-H3122; first compound 0.2 µM): 0.168 | relative viability (NCI-H322M; first compound 0.002 µM): 0.556 | relative viability (NCI-H322M; first compound 0.006325 µM): 0.573 | relative viability (NCI-H322M; first compound 0.02 µM): 0.503 | relative viability (NCI-H322M; first compound 0.06325 µM): 0.708 | relative viability (NCI-H322M; first compound 0.2 µM): 0.373
